Source: patent US11014911B2, “CDK2 inhibitors” (Pfizer Inc., priority 2019, dated 2021)

How the values were obtained:
[1] = target: CDK2/Cyclin E1 full length (Homo sapiens (Human), UniProt P24941); test: CDK2/Cyclin E1 full length mobility shift assay; type: biochemical
GSK3β (H350L) = GSK3β (H350L) (Homo sapiens (Human), UniProt P49841); settings: read-out: GSK3β Ki
GSK3β (H350L), sequence (P49841 whole entry, stated change not applied): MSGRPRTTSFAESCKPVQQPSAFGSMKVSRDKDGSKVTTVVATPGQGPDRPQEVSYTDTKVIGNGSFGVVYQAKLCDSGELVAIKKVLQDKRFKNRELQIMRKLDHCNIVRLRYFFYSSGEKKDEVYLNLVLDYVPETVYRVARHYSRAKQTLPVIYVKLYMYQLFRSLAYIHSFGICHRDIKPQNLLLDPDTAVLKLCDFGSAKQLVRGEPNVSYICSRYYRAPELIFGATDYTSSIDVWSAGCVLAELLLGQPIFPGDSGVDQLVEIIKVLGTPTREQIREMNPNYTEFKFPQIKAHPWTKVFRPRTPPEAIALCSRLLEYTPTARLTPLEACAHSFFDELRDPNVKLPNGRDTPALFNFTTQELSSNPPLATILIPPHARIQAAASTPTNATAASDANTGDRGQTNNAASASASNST
Protocol: The assay was initiated with the addition of ATP, following 15 minutes pre-incubation of enzyme and inhibitor at room temperature in the reaction mixture. The reaction was stopped after 30 minutes at room temperature by the addition of 50 μL of 80 mM EDTA.

SMILES | Ki [1] [nM] | Ki (GSK3β (H350L)) [nM]
CC[C@H](C)NC(=O)O[C@@H]1CC[C@H](c2cc(NC(=O)Cc3cnn(C(C)C)c3)n[nH]2)C1 [Example 349, (1R,3S)-3-[3-({[1-(propan-2-yl)-1H-pyrazol-4-yl]acetyl}amino)-1H-pyrazol-5-yl]cyclopentyl (2S)-butan-2-ylcarbamate] | 0.4 | 57.3
CC[C@H](C)NC(=O)O[C@@H]1CC[C@H](c2cc(NC(=O)Cc3ccc4nc(C)cn4n3)n[nH]2)C1 [Example 47] | 0.11 | 10.2
CC1(NC(=O)O[C@@H]2CC[C@H](c3cc(NC(=O)Cc4ccc(Cl)cn4)n[nH]3)C2)CC1 [Example 437, (1R,3S)-3-(3-{[(5-chloropyridin-2-yl)acetyl]amino}-1H-pyrazol-5-yl)cyclopentyl (1-methylcyclopropyl)carbamate] | 0.51 | 15.9
Cc1ncc(CC(=O)Nc2cc([C@H]3CC[C@@H](OC(=O)N4C[C@@](C)(O)[C@@H]4C)C3)[nH]n2)s1 [Example 623, (1R,3S)-3-(3-{[(2-methyl-1,3-thiazol-5-yl)acetyl]amino}-1H-pyrazol-5-yl)cyclopentyl (2S,3R)-3-hydroxy-2,3-dimethylazetidine-1-carboxylate] | 1.17 | 6.31
CC[C@H](C)NC(=O)O[C@@H]1CC[C@H](c2cc(NC(=O)Cc3cc(C)on3)n[nH]2)C1 [Example 332, (1R,3S)-3-(3-{[(5-methyl-1,2-oxazol-3-yl)acetyl]amino}-1H-pyrazol-5-yl)cyclopentyl (2S)-butan-2-ylcarbamate] | 1.05 | 61.3
Cc1cc(CC(=O)Nc2cc([C@@H]3CC[C@H](OC(=O)N[C@H]4CC[C@H](O)CC4)C3)[nH]n2)ccn1 [Example 547, (1S,3R)-3-(3-{[(2-methylpyridin-4-yl)acetyl]amino}-1H-pyrazol-5-yl)cyclopentyl (trans-4-hydroxycyclohexyl)carbamate] | 0.61 | 3.62
CCN(C)C(=O)O[C@@H]1CC[C@H](c2cc(NC(=O)Cc3ccc(OC)cc3)n[nH]2)C1 [Example 240, (1R,3S)-3-(3-{[(4-methoxyphenyl)acetyl]amino}-1H-pyrazol-5-yl)cyclopentyl ethyl(methyl)carbamate] | 0.73 | 16.1
Cc1cnc(CC(=O)Nc2cc([C@H]3CC[C@@H](OC(=O)N[C@@H](C)[C@@H](C)F)C3)[nH]n2)o1 [Example 383, (1R,3S)-3-(3-{[(5-methyl-1,3-oxazol-2-yl)acetyl]amino}-1H-pyrazol-5-yl)cyclopentyl [(2S,3R)-3-fluorobutan-2-yl]carbamate] | 1.34 | 43.2
CCCNC(=O)O[C@@H]1CC[C@H](c2cc(NC(=O)Cc3ccc(OC)nc3)n[nH]2)C1 [Example 188, (1R,3S)-3-(3-{[(6-methoxypyridin-3-yl)acetyl]amino}-1H-pyrazol-5-yl)cyclopentyl propylcarbamate] | 0.44 | 9.32
CCCNC(=O)O[C@@H]1CC[C@H](c2cc(NC(=O)Cc3cnco3)n[nH]2)C1 [Example 167, (1R,3S)-3-{3-[(1,3-oxazol-5-ylacetyl)amino]-1H-pyrazol-5-yl}cyclopentyl propylcarbamate] | 1.4 | 33.9
COc1ccc(CC(=O)Nc2cc([C@H]3CC[C@@H](OC(=O)N4C[C@@H](OC)[C@@H]4C)C3)[nH]n2)cn1 [Example 621, (1R,3S)-3-(3-{[(6-methoxypyridin-3-yl)acetyl]amino}-1H-pyrazol-5-yl)cyclopentyl (2S,3R)-3-methoxy-2-methylazetidine-1-carboxylate] | 0.36 | 2.77
CCN(C)C(=O)O[C@@H]1CC[C@H](c2cc(NC(=O)Cc3cnc(C)s3)n[nH]2)C1 [Example 239, (1R,3S)-3-(3-{[(2-methyl-1,3-thiazol-5-yl)acetyl]amino}-1H-pyrazol-5-yl)cyclopentyl ethyl(methyl)carbamate] | 1.15 | 9.44
COc1ccc(CC(=O)Nc2cc([C@H]3CC[C@@H](OC(=O)N(C)C(C)C)C3)[nH]n2)cn1 [Example 59] | 0.15 | 2.89
CC[C@H](C)NC(=O)O[C@@H]1CC[C@H](c2cc(NC(=O)c3cc(OC)nn3C)n[nH]2)C1 [Example 41] | 0.2 | 343
CCCNC(=O)O[C@H]1CC[C@@H](c2cc(NC(=O)Cc3cnco3)n[nH]2)C1 [Example 166, (1S,3R)-3-{3-[(1,3-oxazol-5-ylacetyl)amino]-1H-pyrazol-5-yl}cyclopentyl propylcarbamate] | 0.4 | 24.3
Cc1cnc(CC(=O)Nc2cc([C@H]3CC[C@@H](OC(=O)N4CCC4(C)C)C3)[nH]n2)o1 [Example 147] | 0.25 | 6.87
Cc1ccc(CC(=O)Nc2cc([C@@H]3CC[C@H](OC(=O)N[C@H]4CC[C@@H](O)CC4)C3)[nH]n2)nc1 [Example 546, (1S,3R)-3-(3-{[(5-methylpyridin-2-yl)acetyl]amino}-1H-pyrazol-5-yl)cyclopentyl (cis-4-hydroxycyclohexyl)carbamate] | 1.85 | 3.51

SMILES | Ki [1] [nM] | Ki (GSK3β (H350L)) [nM]
CCN(C)C(=O)O[C@H]1CC[C@@H](c2cc(NC(=O)Cc3ccc(OC)nc3)n[nH]2)C1 [Example 243, (1S,3R)-3-(3-{[(6-methoxypyridin-3-yl)acetyl]amino}-1H-pyrazol-5-yl)cyclopentyl ethyl(methyl)carbamate] | 0.75 | 5.35
COc1ccc(CC(=O)Nc2cc([C@H]3CC[C@@H](OC(=O)NC(C)C)C3)[nH]n2)cc1 [Example 275, (1R,3S)-3-(3-{[(4-methoxyphenyl)acetyl]amino}-1H-pyrazol-5-yl)cyclopentyl propan-2-ylcarbamate] | 0.49 | 53.1
CCN(C)C(=O)O[C@H]1CC[C@@H](c2cc(NC(=O)Cc3ccnc(OC)c3)n[nH]2)C1 [Example 241, (1S,3R)-3-(3-{[(2-methoxypyridin-4-yl)acetyl]amino}-1H-pyrazol-5-yl)cyclopentyl ethyl(methyl)carbamate] | 1.04 | 13.4
COc1cc(CC(=O)Nc2cc([C@@H]3CC[C@H](OC(=O)N[C@H]4CC[C@H](O)CC4)C3)[nH]n2)ccn1 [Example 555, (1S,3R)-3-(3-{[(2-methoxypyridin-4-yl)acetyl]amino}-1H-pyrazol-5-yl)cyclopentyl (trans-4-hydroxycyclohexyl)carbamate] | 0.37 | 3.58
CCCNC(=O)O[C@H]1CC[C@@H](c2cc(NC(=O)Cc3cncs3)n[nH]2)C1 [Example 20] | 0.21 | 27.9
Cc1cc(CC(=O)Nc2cc([C@H]3CC[C@@H](OC(=O)NC(C)(C)C)C3)[nH]n2)no1 [Example 295, (1R,3S)-3-(3-{[(5-methyl-1,2-oxazol-3-yl)acetyl]amino}-1H-pyrazol-5-yl)cyclopentyl tert-butylcarbamate] | 0.38 | 56.1
CC(C)(C)NC(=O)O[C@@H]1CC[C@H](c2cc(NC(=O)Cc3ccon3)n[nH]2)C1 [Example 17, (1R,3S)-3-{3-[(1,2-oxazol-3-ylacetyl)amino]-1H-pyrazol-5-yl}cyclopentyl tert-butylcarbamate] | 0.33 | 65.8
COc1ccc(CC(=O)Nc2cc([C@@H]3CC[C@H](OC(=O)N[C@H]4CC[C@](C)(O)CC4)C3)[nH]n2)cn1 [Example 571, (1S,3R)-3-(3-{[(6-methoxypyridin-3-yl)acetyl]amino}-1H-pyrazol-5-yl)cyclopentyl (trans-4-hydroxy-4-methylcyclohexyl)carbamate] | 1.08 | 2.28
CCCCNC(=O)O[C@@H]1CC[C@H](c2cc(NC(=O)Cc3ccno3)n[nH]2)C1 [Example 259, (1R,3S)-3-{3-[(1,2-oxazol-5-ylacetyl)amino]-1H-pyrazol-5-yl}cyclopentyl butylcarbamate] | 0.68 | 17.4
CCCNC(=O)O[C@@H]1CC[C@H](c2cc(NC(=O)Cc3cnc(OC)s3)n[nH]2)C1 [Example 190, (1R,3S)-3-(3-{[(2-methoxy-1,3-thiazol-5-yl)acetyl]amino}-1H-pyrazol-5-yl)cyclopentyl propylcarbamate] | 0.81 | 26.1
CC[C@H](C)NC(=O)O[C@@H]1CC[C@H](c2cc(NC(=O)Cc3ccnn3C)n[nH]2)C1 [Example 326, (1R,3S)-3-(3-{[(1-methyl-1H-pyrazol-5-yl)acetyl]amino}-1H-pyrazol-5-yl)cyclopentyl (2S)-butan-2-ylcarbamate] | 1.17 | 72.4
CC[C@H](C)NC(=O)O[C@@H]1CC[C@H](c2cc(NC(=O)c3cncn3C)n[nH]2)C1 [Example 321, (1R,3S)-3-(3-{[(1-methyl-1H-imidazol-5-yl)carbonyl]amino}-1H-pyrazol-5-yl)cyclopentyl (2S)-butan-2-ylcarbamate] | 0.63 | > 191
COc1cc(CC(=O)Nc2cc([C@@H]3CC[C@H](OC(=O)N[C@H]4CC[C@@](C)(O)CC4)C3)[nH]n2)ccn1 [Example 568, (1S,3R)-3-(3-{[(2-methoxypyridin-4-yl)acetyl]amino}-1H-pyrazol-5-yl)cyclopentyl (cis-4-hydroxy-4-methylcyclohexyl)carbamate] | 0.41 | 5.12
Cn1nncc1C(=O)Nc1cc([C@H]2CC[C@@H](OC(=O)NC(C)(C)C)C2)[nH]n1 [Example 293, (1R,3S)-3-(3-{[(1-methyl-1H-1,2,3-triazol-5-yl)carbonyl]amino}-1H-pyrazol-5-yl)cyclopentyl tert-butylcarbamate] | 0.85 | > 95.3
CC[C@H](C)NC(=O)O[C@@H]1CC[C@H](c2cc(NC(=O)Cc3ccc(COC)cc3S(C)(=O)=O)[nH]n2)C1 [Example 376, (1R,3S)-3-[5-({[4-(methoxymethyl)-2-(methylsulfonyl)phenyl]acetyl}amino)-1H-pyrazol-3-yl]cyclopentyl (2S)-butan-2-ylcarbamate] | 0.4 | 99.3
CO[C@@H]1CN(C(=O)O[C@@H]2CC[C@H](c3cc(NC(=O)Cc4cc(C)no4)n[nH]3)C2)[C@H]1C [Example 618, (1R,3S)-3-(3-{[(3-methyl-1,2-oxazol-5-yl)acetyl]amino}-1H-pyrazol-5-yl)cyclopentyl (2S,3R)-3-methoxy-2-methylazetidine-1-carboxylate] | 0.78 | 8.57
